Calls of active or inactive are those of the source.
What was measured:
[1] = target: 5-hydroxytryptamine receptor 5A (Homo sapiens, UniProt P47898); experiment: Counterscreen for agonists of OPRM1-OPRD1 heterodimerization: luminescence-based cell-based high throughput dose response assay to identify agonists of 5-hydroxytryptamine (serotonin) 5A receptor (HTR5A). [Related pubchem assays (depositor defined):AID504326, AID504355, AID504692, AID504904, AID504905]; format: functional
[2] = target: Mu-type opioid receptor (Homo sapiens, UniProt P35372); experiment: (§1) Counterscreen for agonists of heterodimerization of the mu 1 (OPRM1) and delta 1 (OPRD1) opioid receptors: Luminescence-based cell-based high throughput dose response assay to identify agonists of OPRM1 homodimerization.; format: functional
Mu-type opioid receptor, sequence (P35372 whole entry): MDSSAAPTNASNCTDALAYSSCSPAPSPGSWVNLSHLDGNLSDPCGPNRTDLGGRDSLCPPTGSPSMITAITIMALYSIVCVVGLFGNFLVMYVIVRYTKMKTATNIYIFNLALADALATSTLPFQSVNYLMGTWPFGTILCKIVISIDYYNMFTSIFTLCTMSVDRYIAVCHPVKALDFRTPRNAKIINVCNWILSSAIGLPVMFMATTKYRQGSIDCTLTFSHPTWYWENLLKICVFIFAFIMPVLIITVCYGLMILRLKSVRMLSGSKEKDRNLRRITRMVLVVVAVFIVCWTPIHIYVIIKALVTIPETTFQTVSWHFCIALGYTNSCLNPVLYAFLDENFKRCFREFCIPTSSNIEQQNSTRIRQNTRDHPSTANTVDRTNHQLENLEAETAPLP

[3] = target: Delta-type opioid receptor (Homo sapiens, UniProt P41143); experiment: as §1, with “of OPRD1” for “of OPRM1”, “homodimerization. [Related pubchem assays (depositor defined):AID504326, AID504355, AID504692, AID504904, AID504905]” for “homodimerization.”; format: functional
Delta-type opioid receptor, sequence (P41143 whole entry): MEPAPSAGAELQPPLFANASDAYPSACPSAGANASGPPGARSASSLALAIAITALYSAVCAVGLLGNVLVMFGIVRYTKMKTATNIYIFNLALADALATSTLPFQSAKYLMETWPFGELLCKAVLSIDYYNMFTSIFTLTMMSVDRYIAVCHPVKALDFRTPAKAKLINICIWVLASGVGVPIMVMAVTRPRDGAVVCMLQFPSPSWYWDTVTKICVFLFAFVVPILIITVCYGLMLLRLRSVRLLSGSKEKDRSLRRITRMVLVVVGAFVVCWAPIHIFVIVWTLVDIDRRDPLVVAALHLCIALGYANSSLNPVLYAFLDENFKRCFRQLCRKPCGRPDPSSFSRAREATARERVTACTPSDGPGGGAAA

[4] = target: T1, Short transient receptor potential channel 4 (Mus musculus, UniProt Q9QUQ5); experiment: calcium entry via TRPC4 opening agents – cell-based, HEK293 TRPC4/mu-opioid, Fluo-4 calcium, dose response (AID 434937); format: functional
T1 sequence (Q9QUQ5 whole entry): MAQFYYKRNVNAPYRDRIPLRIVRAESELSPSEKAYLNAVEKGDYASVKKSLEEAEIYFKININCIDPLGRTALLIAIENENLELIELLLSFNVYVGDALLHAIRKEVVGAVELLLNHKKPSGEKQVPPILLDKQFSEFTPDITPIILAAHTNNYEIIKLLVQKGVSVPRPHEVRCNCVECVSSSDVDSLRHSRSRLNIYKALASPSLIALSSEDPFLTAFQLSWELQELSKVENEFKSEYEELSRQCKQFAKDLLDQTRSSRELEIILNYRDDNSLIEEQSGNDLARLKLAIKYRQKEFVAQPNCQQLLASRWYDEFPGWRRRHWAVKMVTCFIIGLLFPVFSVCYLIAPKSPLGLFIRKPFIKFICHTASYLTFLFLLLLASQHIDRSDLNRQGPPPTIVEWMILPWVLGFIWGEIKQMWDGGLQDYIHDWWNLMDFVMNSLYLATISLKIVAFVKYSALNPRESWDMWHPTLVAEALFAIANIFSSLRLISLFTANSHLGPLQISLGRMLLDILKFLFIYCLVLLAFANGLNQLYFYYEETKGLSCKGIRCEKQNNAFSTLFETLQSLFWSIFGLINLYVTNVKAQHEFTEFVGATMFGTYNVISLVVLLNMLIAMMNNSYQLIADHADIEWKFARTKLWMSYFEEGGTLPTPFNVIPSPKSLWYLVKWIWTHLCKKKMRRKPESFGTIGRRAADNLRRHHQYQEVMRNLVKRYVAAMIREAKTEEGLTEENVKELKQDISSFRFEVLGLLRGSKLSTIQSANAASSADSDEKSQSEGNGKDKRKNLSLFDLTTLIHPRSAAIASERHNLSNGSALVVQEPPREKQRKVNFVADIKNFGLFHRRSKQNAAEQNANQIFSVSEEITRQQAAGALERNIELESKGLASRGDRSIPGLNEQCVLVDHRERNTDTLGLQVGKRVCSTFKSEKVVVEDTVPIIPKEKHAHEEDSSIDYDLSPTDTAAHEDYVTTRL

[5] = target: T2, Runt-related transcription factor 1/Core-binding factor subunit beta (Homo sapiens, UniProt Q01196+Q13951); experiment: disruptors of Runt domain/CBFb-SMMHC interaction – biochemical, FRET, Cerulean-Runt, Venus-CBFb-SMMHC, uHTS, […] (AID 1434); format: protein assay
T2 sequence (Q01196 whole entry, the tested form may be a part): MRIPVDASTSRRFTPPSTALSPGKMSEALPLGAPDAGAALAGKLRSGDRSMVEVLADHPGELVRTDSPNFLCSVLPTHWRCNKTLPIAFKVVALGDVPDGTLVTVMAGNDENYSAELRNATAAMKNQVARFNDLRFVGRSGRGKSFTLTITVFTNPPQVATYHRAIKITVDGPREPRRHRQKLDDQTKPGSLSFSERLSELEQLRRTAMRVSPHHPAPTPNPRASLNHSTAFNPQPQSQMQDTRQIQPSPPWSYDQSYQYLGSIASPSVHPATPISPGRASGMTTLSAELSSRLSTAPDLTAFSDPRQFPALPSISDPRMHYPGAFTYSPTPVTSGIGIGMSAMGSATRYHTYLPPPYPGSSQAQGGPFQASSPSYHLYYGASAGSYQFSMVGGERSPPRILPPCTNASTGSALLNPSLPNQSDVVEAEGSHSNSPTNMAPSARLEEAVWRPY
T2 sequence (Q13951 whole entry, the tested form may be a part): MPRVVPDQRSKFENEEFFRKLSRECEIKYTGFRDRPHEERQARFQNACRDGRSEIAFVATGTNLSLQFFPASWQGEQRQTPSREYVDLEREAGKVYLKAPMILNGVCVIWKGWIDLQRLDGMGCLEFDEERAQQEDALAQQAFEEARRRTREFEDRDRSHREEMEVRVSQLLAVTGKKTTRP

[6] = target: T2, Runt-related transcription factor 1/Core-binding factor subunit beta; experiment: Runt domain/CBFb-SMMHC interaction disruptors – biochemical, TR-FRET (AID 1438); format: protein assay
[7] = target: Genome polyprotein (dengue virus type 2, UniProt P29990); experiment: flavivirus cap methylation enzyme inhibition – biochemical, confirmation dose response, primary screen (AID 588689); format: functional
Genome polyprotein, sequence (P29990 2492-3391 limits assumed): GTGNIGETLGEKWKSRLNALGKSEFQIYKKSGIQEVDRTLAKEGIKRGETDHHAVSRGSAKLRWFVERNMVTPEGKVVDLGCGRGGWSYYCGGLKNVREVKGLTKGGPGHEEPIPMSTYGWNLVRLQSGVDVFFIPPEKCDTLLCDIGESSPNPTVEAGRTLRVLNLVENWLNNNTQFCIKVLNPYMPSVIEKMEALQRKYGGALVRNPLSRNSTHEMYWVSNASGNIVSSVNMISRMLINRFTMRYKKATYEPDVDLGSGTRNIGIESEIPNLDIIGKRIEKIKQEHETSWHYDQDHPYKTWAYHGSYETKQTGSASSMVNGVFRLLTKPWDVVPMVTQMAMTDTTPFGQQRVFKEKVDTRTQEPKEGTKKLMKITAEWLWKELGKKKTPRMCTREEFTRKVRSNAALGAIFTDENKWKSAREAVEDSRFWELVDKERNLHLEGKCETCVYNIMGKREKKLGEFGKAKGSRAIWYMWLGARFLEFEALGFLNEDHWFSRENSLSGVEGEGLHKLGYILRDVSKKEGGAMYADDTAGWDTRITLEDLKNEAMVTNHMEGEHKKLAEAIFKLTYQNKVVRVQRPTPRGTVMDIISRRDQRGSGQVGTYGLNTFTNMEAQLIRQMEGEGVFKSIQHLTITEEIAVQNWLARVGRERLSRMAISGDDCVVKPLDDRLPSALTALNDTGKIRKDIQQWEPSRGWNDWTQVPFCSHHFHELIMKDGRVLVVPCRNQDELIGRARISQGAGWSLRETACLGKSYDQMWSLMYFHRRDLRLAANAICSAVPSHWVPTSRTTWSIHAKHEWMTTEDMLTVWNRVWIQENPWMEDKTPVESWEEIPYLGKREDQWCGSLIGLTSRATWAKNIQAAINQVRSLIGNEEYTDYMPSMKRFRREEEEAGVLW

[8] = target: Nonstructural protein 1 (Influenza A virus, UniProt Q194T2); format: functional, Influenza A virus (A/California/07/2009(H1N1))
Nonstructural protein 1, sequence (Q194T2 whole entry): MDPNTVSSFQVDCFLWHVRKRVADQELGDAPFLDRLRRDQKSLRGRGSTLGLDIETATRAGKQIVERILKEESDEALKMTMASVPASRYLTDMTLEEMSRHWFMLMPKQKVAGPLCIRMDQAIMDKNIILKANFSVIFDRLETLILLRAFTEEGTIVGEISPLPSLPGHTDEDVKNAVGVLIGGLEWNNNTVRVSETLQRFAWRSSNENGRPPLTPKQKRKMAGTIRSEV

[9] = system: HEK293; experiment: NOD2 signaling inhibitors in MDP-stimulated cells, cell-based, uHTS, luminescence (AID 2001); format: functional; conditions: Homo sapiens
[10] = system: HEK293; experiment: cells; format: functional, cell-based; conditions: Homo sapiens
[11] = system: HEK293; experiment: cells; format: functional, cell-based; conditions: Homo sapiens; remark: listed apart in the source
[12] = system: HEK293; experiment: inhibition of NOD1-driven NF-kB reporter – cell-based, luminescence, uHTS, primary screen (AID 1578); format: functional; conditions: Homo sapiens
[13] = target: CAAX prenyl protease 1 (Saccharomyces cerevisiae S288c, UniProt P47154); experiment: yeast CAAX protease Ste24 inhibition – biochemical, S. cerevisiae, plate reader, cherry-pick, dose response (AID 488815)
CAAX prenyl protease 1, sequence (P47154 whole entry): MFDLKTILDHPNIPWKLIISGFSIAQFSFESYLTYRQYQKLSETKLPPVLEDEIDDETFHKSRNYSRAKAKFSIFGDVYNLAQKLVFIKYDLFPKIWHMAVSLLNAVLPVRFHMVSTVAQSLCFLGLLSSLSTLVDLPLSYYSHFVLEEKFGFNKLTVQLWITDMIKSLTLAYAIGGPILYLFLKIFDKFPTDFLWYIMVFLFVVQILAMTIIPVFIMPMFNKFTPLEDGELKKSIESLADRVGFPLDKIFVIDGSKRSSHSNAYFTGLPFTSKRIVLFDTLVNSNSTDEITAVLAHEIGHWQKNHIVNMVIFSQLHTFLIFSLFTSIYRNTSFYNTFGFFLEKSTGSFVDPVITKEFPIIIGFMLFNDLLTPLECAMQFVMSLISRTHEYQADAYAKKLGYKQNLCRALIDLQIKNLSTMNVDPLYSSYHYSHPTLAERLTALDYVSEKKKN

[14] = target: SUMO-activating enzyme (Homo sapiens, UniProt Q9UBT2); experiment: blockers of UBC9-mediated SUMO conjugation – biochemical, AlphaScreen, SUMOylation inhibitor project, confirmation (AID 2018); format: functional
SUMO-activating enzyme, sequence (Q9UBE0 whole entry): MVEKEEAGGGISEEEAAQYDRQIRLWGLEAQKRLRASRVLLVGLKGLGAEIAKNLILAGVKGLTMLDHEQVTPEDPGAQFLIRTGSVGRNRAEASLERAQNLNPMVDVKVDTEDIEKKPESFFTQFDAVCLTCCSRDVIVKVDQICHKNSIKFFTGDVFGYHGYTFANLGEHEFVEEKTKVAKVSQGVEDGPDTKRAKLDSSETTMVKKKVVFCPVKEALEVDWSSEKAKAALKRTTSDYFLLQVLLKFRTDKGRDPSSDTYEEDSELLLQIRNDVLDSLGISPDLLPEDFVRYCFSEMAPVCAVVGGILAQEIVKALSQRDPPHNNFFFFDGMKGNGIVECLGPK
SUMO-activating enzyme, sequence (Q9UBT2 whole entry): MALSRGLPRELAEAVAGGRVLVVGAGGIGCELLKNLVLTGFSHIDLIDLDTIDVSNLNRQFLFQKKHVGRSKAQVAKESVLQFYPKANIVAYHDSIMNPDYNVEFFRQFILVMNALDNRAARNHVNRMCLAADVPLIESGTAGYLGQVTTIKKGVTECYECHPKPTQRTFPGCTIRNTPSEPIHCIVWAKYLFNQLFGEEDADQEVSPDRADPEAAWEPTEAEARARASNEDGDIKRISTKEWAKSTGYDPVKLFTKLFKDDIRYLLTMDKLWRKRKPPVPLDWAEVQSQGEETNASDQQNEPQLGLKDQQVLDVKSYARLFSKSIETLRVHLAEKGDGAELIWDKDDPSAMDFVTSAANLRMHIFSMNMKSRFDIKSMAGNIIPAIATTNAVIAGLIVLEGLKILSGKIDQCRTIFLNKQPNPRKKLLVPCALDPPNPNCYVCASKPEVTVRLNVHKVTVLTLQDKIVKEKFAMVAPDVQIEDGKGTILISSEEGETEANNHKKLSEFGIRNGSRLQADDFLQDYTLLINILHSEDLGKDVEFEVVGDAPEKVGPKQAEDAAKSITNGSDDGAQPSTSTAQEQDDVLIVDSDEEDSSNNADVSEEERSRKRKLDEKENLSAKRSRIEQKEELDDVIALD

[15] = viability of PTEN-deleted HCT116 cells – cell-based, HCT116 PTEN knockout, dose response (AID 1047); format: functional;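 further: HCT116 colon tumor cells with PTEN knocked out; cells exposed to compound for 60 hours before readout; potency for loss of cell viability measured by luminescence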

5-hydroxytryptamine receptor 5A, sequence (P47898 whole entry): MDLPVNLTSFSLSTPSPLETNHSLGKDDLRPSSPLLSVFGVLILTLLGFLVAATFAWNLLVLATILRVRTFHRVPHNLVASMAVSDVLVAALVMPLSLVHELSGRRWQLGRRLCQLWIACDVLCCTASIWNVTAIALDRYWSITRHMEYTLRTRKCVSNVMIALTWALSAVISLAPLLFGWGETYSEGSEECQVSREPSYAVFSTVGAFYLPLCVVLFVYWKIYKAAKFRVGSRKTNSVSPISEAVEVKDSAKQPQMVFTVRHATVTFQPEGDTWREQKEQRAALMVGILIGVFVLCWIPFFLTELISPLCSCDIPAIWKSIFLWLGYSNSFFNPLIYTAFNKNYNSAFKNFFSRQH

For `Cc1cccc(NC(S)=NCC(c2cccnc2)N(C)C)c1C` (stereo not drawn), the EC50 [1] was > 92.5 µM (inactive), the EC50 [2] was 2.75 µM (active) and the EC50 [3] was 17.8 µM (inactive). For the same compound, the EC50 [4] was 0.0067 µM (active).
In the case of `CCC1(C)Cc2c(sc3[nH]c(=O)[nH]c(=O)c23)CS1` (stereo not drawn), the IC50 [5] is reported as 38.5 µM (active), the IC50 [6] is reported as 45.1 µM (active) and the IC50 [7] is reported as 88.7 µM (active).
With `CN1C=C/C(=C/c2ccc3ccccc3[n+]2C)c2ccccc21` the IC50 [8] was 16.4 µM (active), the IC50 [9] was 7.8 µM (active) and the IC50 [10] was 18 µM (active). For the same compound, the IC50 [11] was 8.56 µM (active) and the EC50 [12] was 5.15 µM (active).
For `CCOC(=O)c1sc2nc(C3CC3)cc(-c3ccc(F)cc3)c2c1N`, the AC50 [13] was 3.7 µM (active).
With `COC(=O)C(Cc1cccc(C)n1)(c1ccccc1)c1ccccc1` the EC50 [1] was > 92.5 µM (inactive), the EC50 [2] was > 92.5 µM (inactive) and the EC50 [3] was > 92.5 µM (inactive).
For `Cc1cc(NC(=O)Cn2c(=O)n(Cc3ccccc3)c(=O)c3ccccc32)no1`, the IC50 [14] was 67.7 µM (active) and the EC50 [15] was 35.9 µM (active).
